Reference: BindingDB's records for doi:10.1021/jm00015a003 (Warner-Lambert, 1995)
pIC50: −log10 of the molar value. Square brackets hold non-standard residues; d marks the D form. Peptide text beside a SMILES is read from it. dDip = N[C@@H](C(=O)O)C(c1ccccc1)c1ccccc1; Dip = N[C@H](C(=O)O)C(c1ccccc1)c1ccccc1; Orn = NCCC[C@H](N)C(=O)O

experiment: Inhibition of ET-1 stimulated arachidonic acid release in rabbit renal vascular smooth muscle cells

Compared with `CC[C@H](C)[C@H](NC(=O)[C@H](C)NC(=O)[C@H](CC(C)C)NC(=O)[C@@H](NC(C)=O)C(c1ccccc1)c1ccccc1)C(=O)N[C@H](C(=O)N[C@@H](Cc1c[nH]c2ccccc12)C(=O)O)[C@@H](C)CC` [(S)-2-[(2S,3S)-2-((2S,3S)-2-{(S)-2-[(S)-2-((S)-2-Acetylamino-3,3-diphenyl-propionylamino)-4-methyl-pentanoylamino]-propionylamino}-3-methyl-pentanoylamino)-3-methyl-pentanoylamino]-3-(1H-indol-3-yl)-propionic acid] (Ac-[Dip]LAIIW-OH), `CC[C@H](C)[C@H](NC(=O)[C@H](CC(=O)O)NC(=O)[C@H](CC(C)C)NC(=O)[C@H](NC(C)=O)C(c1ccccc1)c1ccccc1)C(=O)N[C@H](C(=O)N[C@@H](Cc1c[nH]c2ccccc12)C(N)=O)[C@@H](C)CC` [(S)-3-[(S)-2-((S)-2-Acetylamino-3,3-diphenyl-propionylamino)-4-methyl-pentanoylamino]-N-((1S,2S)-1-{(1S,2S)-1-[(S)-1-carbamoyl-2-(1H-indol-3-yl)-ethylcarbamoyl]-2-methyl-butylcarbamoyl}-2-methyl-butyl)-succinamic acid] (Ac-[dDip]LDIIW-NH2) is 1.93 log units lower in pIC50: 7.15 for the first, 5.22 for the second.

First: CC[C@H](C)[C@H](NC(=O)[C@H](CC(=O)O)NC(=O)[C@@H](Cc1ccccc1)NC(=O)[C@@H](NC(C)=O)C(c1ccccc1)c1ccccc1)C(=O)N[C@H](C(=O)N[C@@H](Cc1c[nH]c2ccccc12)C(=O)O)[C@@H](C)CC [(S)-3-[(R)-2-((S)-2-Acetylamino-3,3-diphenyl-propionylamino)-3-phenyl-propionylamino]-N-((1S,2S)-1-{(1S,2S)-1-[(S)-1-carboxy-2-(1H-indol-3-yl)-ethylcarbamoyl]-2-methyl-butylcarbamoyl}-2-methyl-butyl)-succinamic acid]
Second: CC[C@H](C)[C@H](NC(=O)[C@H](CC(=O)O)NC(=O)[C@H](CC(C)C)NC(=O)[C@H](NC(C)=O)C(c1ccccc1)c1ccccc1)C(=O)N[C@@H](Cc1ccccc1)C(=O)N[C@@H](Cc1c[nH]c2ccccc12)C(=O)O [(S)-3-[(S)-2-((S)-2-Acetylamino-3,3-diphenyl-propionylamino)-4-methyl-pentanoylamino]-N-((1S,2S)-1-{(S)-1-[(S)-1-carboxy-2-(1H-indol-3-yl)-ethylcarbamoyl]-2-phenyl-ethylcarbamoyl}-2-methyl-butyl)-succinamic acid]
The pIC50 of the first is higher: 6.28 for the first, under 5.00 for the second.

Going from `CC[C@H](C)[C@H](NC(=O)[C@H](CC(=O)O)NC(=O)[C@H](CC(C)C)NC(=O)[C@H](NC(C)=O)C(c1ccccc1)c1ccccc1)C(=O)N[C@@H](CC(C)C)C(=O)N[C@@H](Cc1c[nH]c2ccccc12)C(=O)O` [(S)-3-[(S)-2-((S)-2-Acetylamino-3,3-diphenyl-propionylamino)-4-methyl-pentanoylamino]-N-((1S,2S)-1-{(S)-1-[(S)-1-carboxy-2-(1H-indol-3-yl)-ethylcarbamoyl]-3-methyl-butylcarbamoyl}-2-methyl-butyl)-succinamic acid] to `CC[C@H](C)[C@H](NC(=O)[C@@H](NC(=O)[C@H](CC(=O)O)NC(=O)[C@H](CC(C)C)NC(=O)[C@@H](NC(C)=O)C(c1ccccc1)c1ccccc1)C(C)C)C(=O)N[C@@H](Cc1c[nH]c2ccccc12)C(=O)O` [(S)-3-[(S)-2-((S)-2-Acetylamino-3,3-diphenyl-propionylamino)-4-methyl-pentanoylamino]-N-((S)-1-{(1S,2S)-1-[(S)-1-carboxy-2-(1H-indol-3-yl)-ethylcarbamoyl]-2-methyl-butylcarbamoyl}-2-methyl-propyl)-succinamic acid] (Ac-[Dip]LDVIW-OH), the pIC50 rises from 6.47 to 7.54 (1.07 log units). The second is the more potent here.

`CC[C@H](C)[C@H](NC(=O)[C@H](CC(=O)O)NC(=O)[C@H](CC(C)C)NC(=O)[C@@H](NC(C)=O)C(c1ccccc1)c1ccccc1)C(=O)N[C@@H](CCCCN)C(=O)N[C@@H](Cc1c[nH]c2ccccc12)C(=O)O` [(S)-3-[(S)-2-((S)-2-Acetylamino-3,3-diphenyl-propionylamino)-4-methyl-pentanoylamino]-N-((1S,2S)-1-{(S)-5-amino-1-[(S)-1-carboxy-2-(1H-indol-3-yl)-ethylcarbamoyl]-pentylcarbamoyl}-2-methyl-butyl)-succinamic acid] (Ac-[Dip]LDIKW-OH) and `CC[C@H](C)[C@H](NC(=O)[C@H](CCCCN)NC(=O)[C@H](CC(=O)O)NC(=O)[C@H](CC(C)C)NC(=O)[C@H](NC(C)=O)C(c1ccccc1)c1ccccc1)C(=O)N[C@@H](Cc1c[nH]c2ccccc12)C(=O)O` [(S)-3-[(S)-2-((S)-2-Acetylamino-3,3-diphenyl-propionylamino)-4-methyl-pentanoylamino]-N-((S)-5-amino-1-{(1S,2S)-1-[(S)-1-carboxy-2-(1H-indol-3-yl)-ethylcarbamoyl]-2-methyl-butylcarbamoyl}-pentyl)-succinamic acid] cannot be ordered by pIC50: under 5.00 for the first, under 5.00 for the second.

Compared with `CC[C@H](C)[C@H](NC(=O)[C@H](Cc1ccccc1)NC(=O)[C@H](CC(=O)O)NC(=O)[C@H](CC(C)C)NC(=O)[C@@H](NC(C)=O)C(c1ccccc1)c1ccccc1)C(=O)N[C@@H](Cc1c[nH]c2ccccc12)C(=O)O` [(S)-3-[(S)-2-((S)-2-Acetylamino-3,3-diphenyl-propionylamino)-4-methyl-pentanoylamino]-N-((S)-1-{(1S,2S)-1-[(S)-1-carboxy-2-(1H-indol-3-yl)-ethylcarbamoyl]-2-methyl-butylcarbamoyl}-2-phenyl-ethyl)-succinamic acid] (Ac-[Dip]LDFIW-OH), `CC[C@H](C)[C@H](NC(=O)[C@H](C)NC(=O)[C@H](CC(=O)O)NC(=O)[C@H](CC(C)C)NC(=O)[C@H](NC(C)=O)C(c1ccccc1)c1ccccc1)C(=O)N[C@@H](Cc1c[nH]c2ccccc12)C(=O)O` [(S)-3-[(S)-2-((S)-2-Acetylamino-3,3-diphenyl-propionylamino)-4-methyl-pentanoylamino]-N-((S)-1-{(1S,2S)-1-[(S)-1-carboxy-2-(1H-indol-3-yl)-ethylcarbamoyl]-2-methyl-butylcarbamoyl}-ethyl)-succinamic acid] is 0.42 log units lower in pIC50: 6.80 for the first, 6.38 for the second.

Going from `CC[C@H](C)[C@H](NC(=O)[C@H](CC(=O)O)NC(=O)[C@H](CC(C)C)NC(=O)[C@H](NC(C)=O)C(c1ccccc1)c1ccccc1)C(=O)N[C@H](C(=O)N[C@@H](Cc1ccccc1)C(=O)O)[C@@H](C)CC` [(S)-3-[(S)-2-((S)-2-Acetylamino-3,3-diphenyl-propionylamino)-4-methyl-pentanoylamino]-N-{(1S,2S)-1-[(1S,2S)-1-(1-carboxy-2-phenyl-ethylcarbamoyl)-2-methyl-butylcarbamoyl]-2-methyl-butyl}-succinamic acid] to `CC[C@H](C)[C@H](NC(=O)[C@H](CC(=O)O)NC(=O)[C@H](CCCN)NC(=O)[C@@H](NC(C)=O)C(c1ccccc1)c1ccccc1)C(=O)N[C@H](C(=O)N[C@@H](Cc1c[nH]c2ccccc12)C(=O)O)[C@@H](C)CC` [(S)-3-[(S)-2-((S)-2-Acetylamino-3,3-diphenyl-propionylamino)-5-amino-pentanoylamino]-N-((1S,2S)-1-{(1S,2S)-1-[(S)-1-carboxy-2-(1H-indol-3-yl)-ethylcarbamoyl]-2-methyl-butylcarbamoyl}-2-methyl-butyl)-succinamic acid] (Ac-[Dip][Orn]DIIW-OH), the pIC50 rises from under 5.00 to 7.52.
